US20240366589A1, “NHE3-BINDING COMPOUNDS AND METHODS FOR INHIBITING PHOSPHATE TRANSPORT” (Ardelyx, Inc., priority 2013, published 2024)

Columns and labels:
Rat NHE3 = target: T1, Rat NHE3 (Rattus norvegicus, UniProt P26433); test: Cell-based NHE3 activity under prompt conditions (OK cells, BCECF pH recovery), rat NHE3; conditions: prompt conditions
T1 construct: expressed in transfected cells; host or cells: Opossum kidney (OK) cells (ATCC), electroporation
Procedure, shortened: (§1)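 Fluorometric NHE3 antiport assay in opossum kidney cells carrying rat or human NHE3, using BCECF pH recovery after NH4Cl-prepulse acid loading. pIC50 values derive from initial rates averaged across at least two replicates.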

Human NHE3 = target: T2, Human NHE3 (Homo sapiens, UniProt P48764); test: Cell-based NHE3 activity under prompt conditions (OK cells, BCECF pH recovery), human NHE3; conditions: prompt conditions
T2 construct: expressed in transfected cells; host or cells: Opossum kidney (OK) cells (ATCC), electroporation
T2 sequence (P48764 26-834): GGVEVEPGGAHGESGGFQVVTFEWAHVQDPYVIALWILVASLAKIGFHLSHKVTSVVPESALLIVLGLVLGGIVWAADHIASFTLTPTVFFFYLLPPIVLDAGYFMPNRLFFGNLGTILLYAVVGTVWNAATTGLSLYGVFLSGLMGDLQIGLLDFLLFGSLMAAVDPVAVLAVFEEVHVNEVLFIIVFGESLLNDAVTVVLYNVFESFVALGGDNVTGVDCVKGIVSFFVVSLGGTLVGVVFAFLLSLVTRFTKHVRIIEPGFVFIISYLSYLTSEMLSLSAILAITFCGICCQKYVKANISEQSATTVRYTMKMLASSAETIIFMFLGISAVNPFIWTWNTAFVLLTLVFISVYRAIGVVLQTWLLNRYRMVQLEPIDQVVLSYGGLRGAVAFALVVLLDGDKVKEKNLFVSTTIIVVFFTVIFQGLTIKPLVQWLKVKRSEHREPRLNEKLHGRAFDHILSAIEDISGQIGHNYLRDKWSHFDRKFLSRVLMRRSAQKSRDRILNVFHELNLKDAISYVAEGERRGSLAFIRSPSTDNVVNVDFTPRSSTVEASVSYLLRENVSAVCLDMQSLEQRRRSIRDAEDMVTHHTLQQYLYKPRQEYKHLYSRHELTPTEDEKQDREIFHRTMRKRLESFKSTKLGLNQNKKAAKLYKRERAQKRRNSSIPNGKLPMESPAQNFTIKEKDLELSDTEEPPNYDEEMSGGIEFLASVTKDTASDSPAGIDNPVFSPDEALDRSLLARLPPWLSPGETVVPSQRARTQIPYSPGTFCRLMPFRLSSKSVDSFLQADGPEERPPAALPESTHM
Procedure, shortened: as §1

[1] = system: absorption of sodium from the intestinal lumen; test: Inhibition of intestinal sodium absorption: urinary sodium (uNa) 16 h after single oral dose in rats; format: in vivo, rat; conditions: oral gavage, 16 h post-dose
Procedure, shortened: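 Urinary sodium mass over the 16 h after one oral gavage dose, measured by cation-exchange ion chromatography, reported as percent of water-vehicle group; ANOVA plus Dunnett's post hoc test. Groups of six 8-week-old Sprague-Dawley rats, housed individually in metabolic cages post-dose, fed and watered freely.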

[2] = system: absorption of sodium from the intestinal lumen; test: Fecal form score (FFS) 16 h after oral dose in rats; format: in vivo, rat; conditions: oral gavage, 16 h post-dose, scale 1-5
Procedure, shortened: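 Fecal form was scored at 16 h post-dose on a 1–5 wetness scale (normal pellet to liquid stream), with two independent observations averaged across six rats per group. Animals were 8-week-old Sprague-Dawley rats given test compound or water orally in the late afternoon and kept in metabolic cages.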

[3] = system: phosphorus and calcium levels in the urine of rats; test: Urinary excretion of phosphate and calcium in rats (16 h overnight urine); format: in vivo, rat; conditions: rats, oral gavage, 16 h post-dose

T1 sequence (P26433 29-831): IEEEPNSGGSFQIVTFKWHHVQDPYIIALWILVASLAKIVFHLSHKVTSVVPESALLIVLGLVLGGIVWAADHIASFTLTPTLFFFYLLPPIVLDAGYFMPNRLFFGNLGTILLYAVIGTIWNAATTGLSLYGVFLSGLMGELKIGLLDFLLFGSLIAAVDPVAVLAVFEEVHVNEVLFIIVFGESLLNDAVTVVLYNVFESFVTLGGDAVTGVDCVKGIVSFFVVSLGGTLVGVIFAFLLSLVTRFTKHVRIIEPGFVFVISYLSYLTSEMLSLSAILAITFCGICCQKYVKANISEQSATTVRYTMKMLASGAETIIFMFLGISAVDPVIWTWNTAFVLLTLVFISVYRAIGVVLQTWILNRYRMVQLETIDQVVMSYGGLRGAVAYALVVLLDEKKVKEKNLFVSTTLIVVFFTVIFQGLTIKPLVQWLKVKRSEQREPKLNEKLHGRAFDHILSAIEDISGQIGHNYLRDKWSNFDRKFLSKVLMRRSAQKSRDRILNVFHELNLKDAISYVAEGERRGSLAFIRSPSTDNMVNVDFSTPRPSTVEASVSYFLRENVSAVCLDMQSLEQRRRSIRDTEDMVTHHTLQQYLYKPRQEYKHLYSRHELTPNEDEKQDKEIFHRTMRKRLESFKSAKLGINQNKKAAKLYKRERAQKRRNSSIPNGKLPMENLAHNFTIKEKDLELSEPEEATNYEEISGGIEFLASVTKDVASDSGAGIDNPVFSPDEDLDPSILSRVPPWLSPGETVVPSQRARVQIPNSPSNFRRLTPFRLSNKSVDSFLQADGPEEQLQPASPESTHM

Row | SMILES | Prompt Rat NHE3 pIC50 (Rat NHE3) | Prompt Human NHE3 pIC50 (Human NHE3) | Urine Na % of control ([1]; dose 1 mg/kg) [%] | Urine Na % of control ([1]; dose 3 mg/kg) [%] | Urine Na % of control ([1]; dose 10 mg/kg) [%] | Fecal Form Score average ([2]; dose 1 mg/kg) | Fecal Form Score average ([2]; dose 3 mg/kg) | Fecal Form Score average ([2]; dose 10 mg/kg) | Urine P % of control ([3]; dose 1 mg/kg) [%] | Urine P % of control ([3]; dose 3 mg/kg) [%] | Urine P % of control ([3]; dose 10 mg/kg) [%]
1 | CN(C)[C@H]1Cc2c(Cl)cc(Cl)cc2[C@@H]1Oc1ccc(S(=O)(=O)NCCOCCOCCNC(=O)NCCCCNC(=O)NCCOCCOCCNS(=O)(=O)c2ccc(O[C@H]3c4cc(Cl)cc(Cl)c4C[C@@H]3N(C)C)cc2)cc1 [compound 127] | 8.20 | 8.30 | 55 | 39 | 9 | 1 | 1 | 1 | 159 | 62 | 53
2 | CN1Cc2c(Cl)cc(Cl)cc2[C@H](c2cccc(S(=O)(=O)NCCOCCOCCN(C)C(=O)CCC(CCC(=O)N(C)CCOCCOCCNS(=O)(=O)c3cccc([C@@H]4CN(C)Cc5c(Cl)cc(Cl)cc54)c3)(CCC(=O)N(C)CCOCCOCCNS(=O)(=O)c3cccc([C@@H]4CN(C)Cc5c(Cl)cc(Cl)cc54)c3)NC(=O)COCC(=O)O)c2)C1 [compound 177] | 7.70 | 7.80 |  | 52 |  |  | 2 |  |  | 45 | 
3 | CN(C)[C@H]1Cc2c(Cl)cc(Cl)cc2[C@@H]1Oc1ccc(S(=O)(=O)NCCOCCOCCNC(=O)CCC(C)(N)CCC(=O)NCCOCCOCCNS(=O)(=O)c2ccc(O[C@H]3c4cc(Cl)cc(Cl)c4C[C@@H]3N(C)C)cc2)cc1 [compound 174] | 8.60 | 8.53 |  | 37 | 49 |  | 1 | 1 |  | 55 | 61
4 | CN1Cc2c(Cl)cc(Cl)cc2[C@H](c2cccc(S(=O)(=O)NCCOCCOCCOCCNC(=O)COCC(=O)NCCOCCOCCOc3cccc(-c4nc(NC(=N)N)nc5ccc(Cl)cc45)c3)c2)C1 [compound 25] | 6.85 | 6.60 |  |  | 87 |  |  | 1 |  |  | 150
5 | CN1Cc2c(Cl)cc(Cl)cc2[C@H](c2cccc(S(=O)(=O)NCCOCCOCCNC(=O)CCC(CCC(=O)NCCOCCOCCNS(=O)(=O)c3cccc([C@@H]4CN(C)Cc5c(Cl)cc(Cl)cc54)c3)(CCC(=O)NCCOCCOCCNS(=O)(=O)c3cccc([C@@H]4CN(C)Cc5c(Cl)cc(Cl)cc54)c3)NC(=O)N(C)C)c2)C1 [compound 129] | 5.60 | 6.90 |  | 16 |  |  | 2 |  |  | 48 | 
6 | CN1Cc2c(Cl)cc(Cl)cc2[C@H](c2cccc(S(=O)(=O)NCCOCCOCCNC(=O)COCC(=O)NCCOCCOCCNS(=O)(=O)c3ccc(O[C@H]4c5ccccc5C[C@@H]4N4CCCCC4)cc3)c2)C1 [compound 97] | 7.60 | 8.50 |  |  | 64 |  |  | 1 |  |  | 78
7 | C/C(=C\c1cc(F)c(Oc2ccc(S(=O)(=O)NCCOCCOCCOCCNC(=O)N(C)CCCCN(C)C(=O)NCCOCCOCCOCCNS(=O)(=O)c3ccc(Oc4c(F)cc(/C=C(\C)C(=O)N=C(N)N)cc4F)cc3)cc2)c(F)c1)C(=O)N=C(N)N [compound 30] | 7.80 | 8.40 |  |  | 100 |  |  | 1 |  |  | 104
8 | N=C(N)Nc1nc(-c2cccc(N3CCN(CCOCCOCCOCCNC(=O)NCCOCCOCCNC(=O)CN(CCN(CC(=O)O)CC(=O)NCCOCCOCCNC(=O)NCCOCCOCCOCCN4CCN(c5cccc(-c6nc(NC(=N)N)nc7ccc(Cl)cc67)c5)CC4)CC(=O)O)CC3)c2)c2cc(Cl)ccc2n1 [compound 41] | 7.90 | 8.20 |  |  | 104 |  |  | 1 |  |  | 133
9 | CN1Cc2c(Cl)cc(Cl)cc2[C@H](c2cccc(S(=O)(=O)NCCOCCOCCNC(=O)CN(CCOCCOCCN(CC(=O)NCCOCCOCCNS(=O)(=O)c3cccc([C@@H]4CN(C)Cc5c(Cl)cc(Cl)cc54)c3)CC(=O)NCCOCCOCCNS(=O)(=O)c3cccc([C@@H]4CN(C)Cc5c(Cl)cc(Cl)cc54)c3)CC(=O)NCCOCCOCCNS(=O)(=O)c3cccc([C@@H]4CN(C)Cc5c(Cl)cc(Cl)cc54)c3)c2)C1 [compound 85] | 5.80 | 6.10 |  |  | 92 |  |  | 1 |  |  | 85
10 | CN1Cc2c(Cl)cc(Cl)cc2[C@H](c2cccc(S(=O)(=O)NCCOCCOCCNC(=O)CN(CC(=O)NCCOCCOCCNS(=O)(=O)c3cccc([C@@H]4CN(C)Cc5c(Cl)cc(Cl)cc54)c3)CC(=O)NCCOCCOCCNS(=O)(=O)c3cccc([C@@H]4CN(C)Cc5c(Cl)cc(Cl)cc54)c3)c2)C1 [compound 74] | 6.30 | 6.80 |  |  | 30 |  |  | 3 |  |  | 44
11 | CN(C)[C@H]1Cc2ccc(Cl)cc2[C@@H]1Oc1ccc(S(=O)(=O)NCCOCCOCCNC(=O)NCCCCNC(=O)NCCOCCOCCNS(=O)(=O)c2ccc(O[C@H]3c4cc(Cl)ccc4C[C@@H]3N(C)C)cc2)cc1 [compound 116] | <5.00 | 8.30 |  |  | 84 |  |  | 1 |  |  | 130
12 | CN1Cc2c(Cl)cc(Cl)cc2[C@H](c2cccc(S(=O)(=O)NCCOCCOCCNC(=O)N(C)CCCN(CCCN(C)C(=O)NCCOCCOCCNS(=O)(=O)c3cccc([C@@H]4CN(C)Cc5c(Cl)cc(Cl)cc54)c3)CCCN(C)C(=O)NCCOCCOCCNS(=O)(=O)c3cccc([C@@H]4CN(C)Cc5c(Cl)cc(Cl)cc54)c3)c2)C1 [compound 107] | 6.90 | 8.10 | 88 | 55 | 28 | 1 | 1 | 4 | 106 | 66 | 59
13 | CN(C)[C@H]1Cc2c(F)cc(Cl)cc2[C@@H]1Oc1ccc(S(=O)(=O)NCCOCCOCCNC(=O)NCCCCNC(=O)NCCOCCOCCNS(=O)(=O)c2ccc(O[C@H]3c4cc(Cl)cc(F)c4C[C@@H]3N(C)C)cc2)cc1 [compound 166] | <5.00 | 8.40 |  |  | 111 |  |  | 1 |  |  | 43
14 | CN(C)CC(=O)NC(CCC(=O)NCCOCCOCCNS(=O)(=O)c1cccc([C@@H]2CN(C)Cc3c(Cl)cc(Cl)cc32)c1)(CCC(=O)NCCOCCOCCNS(=O)(=O)c1cccc([C@@H]2CN(C)Cc3c(Cl)cc(Cl)cc32)c1)CCC(=O)NCCOCCOCCNS(=O)(=O)c1cccc([C@@H]2CN(C)Cc3c(Cl)cc(Cl)cc32)c1 [compound 128] | 7.10 | 8.00 | 46 | 35 |  | 1 | 2 |  | 90 | 58 | 
15 | CN1Cc2c(Cl)cc(Cl)cc2[C@H](c2cccc(S(=O)(=O)NCCOCCOCCNC(=O)CCC(CCC(=O)NCCOCCOCCNS(=O)(=O)c3cccc([C@@H]4CN(C)Cc5c(Cl)cc(Cl)cc54)c3)(CCC(=O)NCCOCCOCCNS(=O)(=O)c3cccc([C@@H]4CN(C)Cc5c(Cl)cc(Cl)cc54)c3)NC(=O)NC[C@H](O)[C@@H](O)[C@H](O)[C@H](O)CO)c2)C1 [compound 143] | 7.25 | 7.27 | 68 | 34 |  | 1 | 3 |  | 73 | 93 | 
